What was measured:
[1] = system: late watergrass; assay: Test Example 2: herbicidal activity, application during weed generation under submerged conditions (Table 17, symbol A); format: in vivo, late watergrass (Echinochloa oryzicola); conditions: AAH 320 g/ha; application during weed generation, submerged conditions
Method in brief: (§1)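 Herbicide emulsion, diluted with water to the chosen amount, is applied onto 4 cm floodwater over alluvial soil where the weeds were co-sown and raised at 25–30° C. Application timing: 1–2 leaves. Assessment: three weeks afterwards.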

[2] = system: Japanese bulrush; assay: Test Example 2: herbicidal activity, application during weed generation under submerged conditions (Table 17, symbol B); format: in vivo, Japanese bulrush (Schoenoplectus juncoides); conditions: AAH 320 g/ha; application during weed generation, submerged conditions
Method in brief: as §1

[3] = system: oval-leafed pondweed; assay: Test Example 2: herbicidal activity, application during weed generation under submerged conditions (Table 17, symbol C); format: in vivo, oval-leafed pondweed (Monochoria vaginalis); conditions: AAH 320 g/ha; application during weed generation, submerged conditions
Method in brief: as §1

[4] = system: barnyard grass; assay: Test Example 3: herbicidal effect by foliage application, Wagner pot (Table 18, symbol H); format: in vivo, barnyard grass (Echinochloa crus-galli); conditions: 320 g/ha
Method in brief: (§2)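 Plants were sown in alluvial soil held under 0.1–0.5 cm standing water and grown 14 days in a greenhouse at 25–30 °C. An emulsifiable formulation, water-diluted to the set dose, was then sprayed onto the foliage, and effects were scored three weeks later using previously defined criteria.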

[5] = system: Chinese sprangletop; assay: Test Example 3: herbicidal effect by foliage application, Wagner pot (Table 18, symbol D); format: in vivo, chinese sprangletop (Leptochloa chinensis); conditions: 320 g/ha
Method in brief: as §2

[6] = system: rice flat sedge; assay: Test Example 3: herbicidal effect by foliage application, Wagner pot (Table 18, symbol E); format: in vivo, rice flat sedge (Cyperus iria); conditions: 320 g/ha
Method in brief: as §2

[7] = system: southern crabgrass; assay: Test Example 4: herbicidal effect by soil treatment (Table 19, symbol F); format: in vivo, southern crabgrass (Digitaria ciliaris); conditions: amount of applied herbicide 320 g/ha
Method in brief: (§3)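 Three weeks of greenhouse growth at 25° C. to 30° C. followed a uniform surface spray of water-diluted emulsion at a predetermined herbicide amount. Seeds had been sown beforehand under about 1.5 cm of sterilized diluvial soil. Grading followed criteria set out in an earlier test.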

[8] = system: green foxtail; assay: Test Example 4: herbicidal effect by soil treatment (Table 19, symbol G); format: in vivo, green foxtail (Setaria viridis); conditions: amount of applied herbicide 320 g/ha
Method in brief: as §3

[9] = system: barnyard grass; assay: Test Example 4: herbicidal effect by soil treatment (Table 19, symbol H); format: in vivo, barnyard grass (Echinochloa crus-galli); conditions: amount of applied herbicide 320 g/ha
Method in brief: as §3

[10] = system: wild oat; assay: Test Example 4: herbicidal effect by soil treatment (Table 19, symbol I); format: in vivo, wild oat (Avena fatua); conditions: amount of applied herbicide 320 g/ha
Method in brief: as §3

[11] = system: blackgrass; assay: Test Example 4: herbicidal effect by soil treatment (Table 19, symbol J); format: in vivo, blackgrass (Alopecurus myosuroides); conditions: amount of applied herbicide 320 g/ha
Method in brief: as §3

[12] = system: Italian ryegrass; assay: Test Example 4: herbicidal effect by soil treatment (Table 19, symbol K); format: in vivo, Italian ryegrass (Lolium multiflorum); conditions: amount of applied herbicide 320 g/ha
Method in brief: as §3

[13] = system: windgrass; assay: Test Example 4: herbicidal effect by soil treatment (Table 19, symbol L); format: in vivo, windgrass (Apera spica-venti); conditions: amount of applied herbicide 320 g/ha
Method in brief: as §3

[14] = system: velvetleaf; assay: Test Example 4: herbicidal effect by soil treatment (Table 19, symbol M); format: in vivo, velvetleaf (Abutilon theophrasti); conditions: amount of applied herbicide 320 g/ha
Method in brief: as §3

[15] = system: redroot pigweed; assay: Test Example 4: herbicidal effect by soil treatment (Table 19, symbol N); format: in vivo, redroot pigweed (Amaranthus retroflexus); conditions: amount of applied herbicide 320 g/ha
Method in brief: as §3

[16] = system: lambsquarters; assay: Test Example 4: herbicidal effect by soil treatment (Table 19, symbol O); format: in vivo, lambsquarters (Chenopodium album); conditions: amount of applied herbicide 320 g/ha
Method in brief: as §3

[17] = system: chickweed; assay: Test Example 4: herbicidal effect by soil treatment (Table 19, symbol P); format: in vivo, common chickweed (Stellaria media); conditions: amount of applied herbicide 320 g/ha
Method in brief: as §3

[18] = system: persian speedwell; assay: Test Example 4: herbicidal effect by soil treatment (Table 19, symbol R); format: in vivo, Persian speedwell (Veronica persica); conditions: amount of applied herbicide 320 g/ha
Method in brief: as §3

[19] = system: southern crabgrass; assay: Test Example 5: herbicidal effect by foliage application, plastic box (Table 20, symbol F); format: in vivo, southern crabgrass (Digitaria ciliaris); conditions: 320 g/ha, foliage application after 14-day growth, evaluated three weeks after application
Method in brief: (§4)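 Plants sown in sterilized diluvial soil and grown 14 days in a greenhouse at 25° C to 30° C, then sprayed on the foliage with the compound's emulsion diluted in water to a predetermined herbicide amount. Injury to weeds and crops scored three weeks after application on a visual rating scale.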

[20] = system: green foxtail; assay: Test Example 5: herbicidal effect by foliage application, plastic box (Table 20, symbol G); format: in vivo, green foxtail (Setaria viridis); conditions: 320 g/ha, foliage application after 14-day growth, evaluated three weeks after application
Method in brief: as §4

[21] = system: barnyard grass; assay: Test Example 5: herbicidal effect by foliage application, plastic box (Table 20, symbol H); format: in vivo, barnyard grass (Echinochloa crus-galli); conditions: 320 g/ha, foliage application after 14-day growth, evaluated three weeks after application
Method in brief: as §4

[22] = system: wild oat; assay: Test Example 5: herbicidal effect by foliage application, plastic box (Table 20, symbol I); format: in vivo, wild oat (Avena fatua); conditions: 320 g/ha, foliage application after 14-day growth, evaluated three weeks after application
Method in brief: as §4

[23] = system: blackgrass; assay: Test Example 5: herbicidal effect by foliage application, plastic box (Table 20, symbol J); format: in vivo, blackgrass (Alopecurus myosuroides); conditions: 320 g/ha, foliage application after 14-day growth, evaluated three weeks after application
Method in brief: as §4

[24] = system: Italian ryegrass; assay: Test Example 5: herbicidal effect by foliage application, plastic box (Table 20, symbol K); format: in vivo, Italian ryegrass (Lolium multiflorum); conditions: 320 g/ha, foliage application after 14-day growth, evaluated three weeks after application
Method in brief: as §4

[25] = system: windgrass; assay: Test Example 5: herbicidal effect by foliage application, plastic box (Table 20, symbol L); format: in vivo, windgrass (Apera spica-venti); conditions: 320 g/ha, foliage application after 14-day growth, evaluated three weeks after application
Method in brief: as §4

[26] = system: velvetleaf; assay: Test Example 5: herbicidal effect by foliage application, plastic box (Table 20, symbol M); format: in vivo, velvetleaf (Abutilon theophrasti); conditions: 320 g/ha, foliage application after 14-day growth, evaluated three weeks after application
Method in brief: as §4

[27] = system: redroot pigweed; assay: Test Example 5: herbicidal effect by foliage application, plastic box (Table 20, symbol N); format: in vivo, redroot pigweed (Amaranthus retroflexus); conditions: 320 g/ha, foliage application after 14-day growth, evaluated three weeks after application
Method in brief: as §4

[28] = system: lambsquarters; assay: Test Example 5: herbicidal effect by foliage application, plastic box (Table 20, symbol O); format: in vivo, lambsquarters (Chenopodium album); conditions: 320 g/ha, foliage application after 14-day growth, evaluated three weeks after application
Method in brief: as §4

[29] = system: chickweed; assay: Test Example 5: herbicidal effect by foliage application, plastic box (Table 20, symbol P); format: in vivo, common chickweed (Stellaria media); conditions: 320 g/ha, foliage application after 14-day growth, evaluated three weeks after application
Method in brief: as §4

[30] = system: persian speedwell; assay: Test Example 5: herbicidal effect by foliage application, plastic box (Table 20, symbol R); format: in vivo, Persian speedwell (Veronica persica); conditions: 320 g/ha, foliage application after 14-day growth, evaluated three weeks after application
Method in brief: as §4

## CCCC(=O)Oc1c(C)nn(C)c(=O)c1-c1c(-c2ccc(F)cc2)sc2c(Cl)cccc12 [4-016]
[1]
  herbicidal effect rating, A: late watergrass: 2 (Herbicidal rate of 20% or more and less than 40%)
[2]
  herbicidal effect rating, B: Japanese bulrush: 0 (Herbicidal rate of 5% or less (almost no effect))
[3]
  herbicidal effect rating, C: oval-leafed pondweed: 0 (Herbicidal rate of 5% or less (almost no effect))
[4]
  herbicidal effect on barnyard grass (H): 3 (Herbicidal rate of 40% or more and less than 70%)
[5]
  herbicidal effect on Chinese sprangletop (D): 5 (Herbicidal rate of 90% or more (almost completely withered))
[6]
  herbicidal effect on rice flat sedge (E): 4 (Herbicidal rate of 70% or more and less than 90%)
[7]
  Herbicidal effect by soil treatment, F: southern crabgrass: 2 (Herbicidal rate of 20% or more and less than 40%)
[8]
  Herbicidal effect by soil treatment, G: green foxtail: 3 (Herbicidal rate of 40% or more and less than 70%)
[9]
  Herbicidal effect by soil treatment, H: barnyard grass: 1 (Herbicidal rate of 5% or more and less than 20%)
[10]
  Herbicidal effect by soil treatment, I: wild oat: 0 (Herbicidal rate of 5% or less (almost no effect))
[11]
  Herbicidal effect by soil treatment, J: blackgrass: 0 (Herbicidal rate of 5% or less (almost no effect))
[12]
  Herbicidal effect by soil treatment, K: Italian ryegrass: 0 (Herbicidal rate of 5% or less (almost no effect))
[13]
  Herbicidal effect by soil treatment, L: windgrass: 0 (Herbicidal rate of 5% or less (almost no effect))
[14]
  Herbicidal effect by soil treatment, M: velvetleaf: 0 (Herbicidal rate of 5% or less (almost no effect))
[15]
  Herbicidal effect by soil treatment, N: redroot pigweed: 3 (Herbicidal rate of 40% or more and less than 70%)
[16]
  Herbicidal effect by soil treatment, O: lambsquarters: 1 (Herbicidal rate of 5% or more and less than 20%)
[17]
  Herbicidal effect by soil treatment, P: chickweed: 1 (Herbicidal rate of 5% or more and less than 20%)
[18]
  Herbicidal effect by soil treatment, R: persian speedwell: 0 (Herbicidal rate of 5% or less (almost no effect))
[19]
  herbicidal effect on F: southern crabgrass (evaluation grade 0-5): 0 (Herbicidal rate of 5% or less (almost no effect))
[20]
  herbicidal effect on G: green foxtail (evaluation grade 0-5): 0 (Herbicidal rate of 5% or less (almost no effect))
[21]
  herbicidal effect on H: barnyard grass (evaluation grade 0-5): 0 (Herbicidal rate of 5% or less (almost no effect))
[22]
  herbicidal effect on I: wild oat (evaluation grade 0-5): 3 (Herbicidal rate of 40% or more and less than 70%)
[23]
  herbicidal effect on J: blackgrass (evaluation grade 0-5): 0 (Herbicidal rate of 5% or less (almost no effect))
[24]
  herbicidal effect on K: Italian ryegrass (evaluation grade 0-5): 0 (Herbicidal rate of 5% or less (almost no effect))
[25]
  herbicidal effect on L: windgrass (evaluation grade 0-5): 5 (Herbicidal rate of 90% or more (almost completely withered))
[26]
  herbicidal effect on M: velvetleaf (evaluation grade 0-5): 5 (Herbicidal rate of 90% or more (almost completely withered))
[27]
  herbicidal effect on N: redroot pigweed (evaluation grade 0-5): 3 (Herbicidal rate of 40% or more and less than 70%)
[28]
  herbicidal effect on O: lambsquarters (evaluation grade 0-5): 1 (Herbicidal rate of 5% or more and less than 20%)
[29]
  herbicidal effect on P: chickweed (evaluation grade 0-5): 5 (Herbicidal rate of 90% or more (almost completely withered))
[30]
  herbicidal effect on R: persian speedwell (evaluation grade 0-5): 3 (Herbicidal rate of 40% or more and less than 70%)

Reference: patent US20230085307A1, “PYRIDAZINONE COMPOUND AND HERBICIDE” (NISSAN CHEMICAL CORPORATION, priority 2019, published 2023)
